# US10251919B2, “Method for improving skin condition or anti-microorganisms or anti-oxidation using Lactobacillus sakei MD honeysuckle” (AMOREPACIFIC CORPORATION, priority 2015, dated 2019)
# Values joined by “and” are separate entries in the source; they are usually repeats but may differ in a detail not shown here. Identical values can stand only once.
# Tests used:
# [1] = test system: B16 melanoma cells; test: B16 melanoma cell melanin assay (melanogenesis inhibiting ability); assay type: cell-based; details: 100 ppm sample, 200 nM a-MSH; for extracellular OD475 / extracellular melanin / extracellular melanin, % of control / melanin/protein: replicates 1-3
# Procedure: Skin-whitening effect was evaluated as described below. B16 melanoma cells were seeded onto a 12-well plate at a density of 1.5×10^5 cells per well. DMEM (Dulbeco's modified Eagle's medium) supplemented with 10% fetal bovine serum was used and the cells were cultured for 24 hours (10% CO2, 37° C.). The 12-well plate onto which the B16 melanoma cells were seeded was treated with 200 nM melanocyte-stimulating hormone (MSH) and then the 12-well plate was treated with each sample (25, 50, 100 and 200 ppm). The test groups were: a group treated with sonicated identified strain (LBS sonication), a group treated with heat-killed identified strain (LBS heat), and a group treated with cultural filtrate of the identified strain (culture). […] The cells treated with nothing were used as a negative control group and those treated only with MSH was used as a vehicle group. After the treatment, the cell culture (extracellular melanin) was transferred to a 96-well plate and absorbance was measured at 475 nm. […] The calculated melanin content was normalized to the total protein content for each group and the melanogenesis inhibiting ability was evaluated by comparing with the control groups. The experiment was repeated 3 times.
# [2] = DPPH assay; assay type: biochemical; details: at 100 μM; 1 mL 0.2 mM DPPH, 30 minutes
# Procedure: L-Ascorbic acid (Sigma Aldrich) was used as a positive control. […] MRS broth not treated with a strain was used as a negative control. After the reaction, OD515 was measured using a spectrophotometer and DPPH radical scavenging activity was calculated according to the following equation. DPPH radical scavenging activity (%)=[(Absorbance of control to which sample was not added)−(Absorbance of group to which sample was added)]/(Absorbance of control to which sample was not added) […] The experiment was conducted 3 times and the average value was obtained.
SMILES,"extracellular melanin, % of control (average of 3) [1]",extracellular OD475 [1],extracellular melanin [1],"extracellular melanin, % of control [1]",melanin/protein [1],DPPH radical scavenging activity [2]
OC[C@H]1O[C@@H](Oc2ccc(O)cc2)[C@H](O)[C@@H](O)[C@@H]1O [arbutin],111.1 % of control,0.281 and 0.252 and 0.274,138.50 ppm and 124.00 ppm and 135.00 ppm,116.8 % of control and 106.1 % of control and 110.5 % of control,214.2 µg/mg and 194.5 µg/mg and 202.6 µg/mg,
O=c1cc(CO)occ1O [kojic acid],67.3 % of control,0.163,68.00 ppm and 70.00 ppm and 79.50 ppm,65.1 % of control and 65.3 % of control and 71.5 % of control,119.4 µg/mg and 119.7 µg/mg and 131.2 µg/mg,
O=C1O[C@H]([C@@H](O)CO)C(O)=C1O [L-ascorbic acid],,,,,,about 7%
